# From patent US10857136B2, “Compounds for use in the prevention and/or treatment of non-alcoholic fat liver disease and non-alcoholic steatohepatitis” (SJT MOLECULAR RESEARCH, SL, priority 2017, dated 2020)
# Legend:
# Format in all cases: in vivo
# [1] = system: DIO mice (C57Bl/6J male mice); experiment: Liver weight, 36 days assay in DIO mice; conditions: 50 mg/kg orally twice daily, after 36 days, vs saline control and metformin 150 mg/kg
# Method: To assess the performance of the compounds disclosed decreasing liver overweight, DIO mice (C57Bl/6J male mice) were treated with compounds 4a and 5a during 36 days, versus a control of DIO mice treated with vehicle (0.9% NaCl) and DIO mice treated with Metformin as a positive control.
# For the assessment, 60 C57Bl/6J male mice (16-week-old at delivery and 40 g of average weight), obtained from Charles River France, were put on high fat diet for 10 weeks. The animals were housed in ventilated and enriched housing cages (310×125×127 mm^3) throughout the experimental phase. Animals' cages litters were changed at least once a week. Mice were housed in groups of 10 mice on a normal 12 hours light cycle (at 08:00 pm lights were switched off), at 22±2° C. and 50±10% relative humidity. After reception, mice were maintained for three additional acclimation weeks. During the whole test (acclimation+treatment phase) a high fat diet (D12492; purchased from Research Diet Inc 60% fat) and tap water were provided ad libitum.
# After the acclimation period, mice were fasted for 6 hours and blood glucose and plasma insulin were measured. Ten animals, those with lower blood glucose/plasma insulin, were discarded from the study. Then, the others were randomized into 5 homogenous groups (n=10 mice per group) according to their blood glucose/plasma insulin levels (HOMA-IR) and body weight. […]
# [2] = system: DIO-NASH mice (C57Bl/6J male mice); experiment: Absolute and relative body weight, 8 weeks assay in DIO-NASH mice; conditions: 50 mg/kg, p.o., b.i.d., statistics at day 54, vs DIO-NASH vehicle
# Method: The assay was carried out to evaluate the effect of the compounds of the invention on body weight of animals with non-alcoholic fat liver disease (DIO-NASH mice). For this assay, the effect of compound 4a in absolute and relative body weight was evaluated. DIO-NASH mice (C57Bl/6J male mice) were treated with a hydrochloride salt of compound 4a during 8 weeks (50 mg/kg, p.o., b.i.d.), versus a pathological control of DIO-NASH mice and a non-pathological control LEAN-CHOW mice, both treated with the vehicle (0.9% NaCl). The DIO-NASH mice group were put on high fat diet (40% AMLN diet, D09100301 Research Diets, USA) and a control group (LEAN-CHOW) was put on a regular chow diet (Altromin 1324, Brogaarden, Denmark) for 35 weeks prior to the study.
# Body weight of for each of the groups taken on a daily basis. The animals were kept under the same conditions were used as in example 2.2.
# [3] = system: DIO-NASH mice (C57Bl/6J male mice); experiment: Liver toxicity: plasma ALT and AST, 8 weeks assay in DIO-NASH mice; conditions: 50 mg/kg, p.o., b.i.d., end of treatment, vs DIO-NASH vehicle
# Method: The assay was carried out to evaluate the effect of the compounds of the invention on liver toxicity for animals with non-alcoholic fat liver disease (DIO-NASH mice). For this assay, the effect of compound 4a in plasma Alanine Aminotransferase (ALT) and in plasma Aspartate Aminotransferase (AST) was evaluated. DIO-NASH mice (C57Bl/6J male mice) were treated with a hydrochloride salt of compound 4a during 8 weeks (50 mg/kg, p.o., b.i.d.), versus a pathological control of DIO-NASH mice and a non-pathological control LEAN-CHOW mice, both treated with the vehicle (0.9% NaCl). The animals were kept under the same conditions were used as in example 2.2. The DIO-NASH mice group were put on high fat diet (40% AMLN diet, D09100301 Research Diets, USA) and a control group (LEAN-CHOW) was put on a regular chow diet (Altromin 1324, Brogaarden, Denmark) for 35 weeks prior to the study.
# To evaluate Alanine transaminase (ALT) and Aspartate transaminase (AST), blood samples were collected in heparinized tubes and plasma was separated and stored at −80° C. until analysis. ALT and AST were measured using commercial kits (Roche Diagnostics, Germany) on the Cobas™ C-501 autoanalyzer according to the manufacturer's instructions.
# [4] = system: DIO-NASH mice (C57Bl/6J male mice); experiment: Liver fibrosis: collagen type I (col1a1) IHC staining in DIO-NASH mice; conditions: 50 mg/kg, p.o., b.i.d., 8 weeks
# Method: To assess the effect of the compounds of the invention in fibrosis of liver in the treatment of non-alcoholic fat liver disease, the collagen type I (a fibrosis marker) in liver was measured after the 8 weeks of the study where DIO-NASH mice (C57Bl/6J male mice) were treated with a hydrochloride salt of compound 4a during 8 weeks (50 mg/kg, p.o., b.i.d.), versus a pathological control of DIO-NASH mice and a non-pathological control LEAN-CHOW mice, both treated with the vehicle (0.9% NaCl).
# Type I collagen content was measured by IHC staining: Type I collagen (Southern Biotech, Cat. 1310-01) IHC was performed using standard procedures. Briefly, after antigen retrieval and blocking of endogenous peroxidase activity, liver slides were incubated with primary antibody. The primary antibody was detected using biotinylated secondary antibody and amplified using a vectastain-TSA-vectastain method a polymeric HRP-linker antibody conjugate. Next, the primary antibody was visualized with DAB as chromogen. Finally, sections were counterstained in hematoxylin and cover-slipped.
smiles,measurement,setting,value
"COc1ccc(-c2nc(C(=O)NCCN)cc3c2[nH]c2ccccc23)cc1 [Compound 4a, N(-ethylamine)-1-benzosubstituted-β-carboline-3-carboxamide]",liver weight (liver overweight),[1],lower liver weight than either mice treated with metformin or than the control animals
same,absolute body weight,[2],reduced body weight
same,relative body weight versus the body weight at the start of the treatment (day 0 is 100%),[2],reduced relative body weight significantly
same,plasma ALT,[3],reduced the plasma ALT levels
same,plasma AST,[3],reduced the plasma AST levels
same,"anti-type I collagen (col1a1) staining, representative images of liver samples",[4]; end of study,visible change in this fibrosis marker
same,total content of liver collagen type 1 (col1a1) determined by morphometry,[4]; vs DIO-NASH vehicle,reduced total liver col1a1
